Laboratory results taken from the NIST ThermoML archive (doi:10.1016/j.jct.2005.08.002).
± gives the expanded uncertainty stated by the source.

Experiment: xn = mol fraction of the nth substance listed
Conditions: 101 kPa, Liquid; for viscosity: Capillary tube (Ostwald / Ubbelohde) method; for speed of sound: Sing-around technique in a fixed-path interferometer; for mass density: Vibrating tube method

CC1CCCC1 [methylcyclopentane] + CC(C)=O
Conditions | mass density, 293.15 K [kg/m3] | mass density, 298.15 K [kg/m3] | mass density, 303.15 K [kg/m3] | speed of sound, 293.15 K [m/s] | speed of sound, 298.15 K [m/s] | speed of sound, 303.15 K [m/s] | viscosity, 293.15 K [mPa·s] | viscosity, 298.15 K [mPa·s] | viscosity, 303.15 K [mPa·s]
x1 = 0.05 | 785.97 ± 0.21 | 780.3 ± 0.21 | 774.59 ± 0.21 | 1177 ± 2 | 1155 ± 2 | 1132 ± 2 | 0.323 ± 0.007 | 0.308 ± 0.007 | 0.294 ± 0.006
x1 = 0.0985 | 781.33 ± 0.29 | 775.71 ± 0.29 | 770.04 ± 0.29 | 1171 ± 2 | 1148 ± 2 | 1126 ± 2 | 0.323 ± 0.007 | 0.308 ± 0.007 | 0.294 ± 0.006
x1 = 0.2004 | 773.02 ± 0.47 | 767.49 ± 0.47 | 761.9 ± 0.47 | 1162 ± 2 | 1139 ± 2 | 1116 ± 2 | 0.333 ± 0.007 | 0.317 ± 0.007 | 0.302 ± 0.007
x1 = 0.3009 | 766.13 ± 0.65 | 760.68 ± 0.65 | 755.18 ± 0.65 | 1157 ± 3 | 1134 ± 3 | 1111 ± 3 | 0.347 ± 0.008 | 0.33 ± 0.008 | 0.316 ± 0.007
x1 = 0.4024 | 760.79 ± 0.84 | 755.43 ± 0.83 | 750.02 ± 0.83 | 1156 ± 3 | 1133 ± 3 | 1110 ± 3 | 0.361 ± 0.009 | 0.344 ± 0.008 | 0.328 ± 0.008
x1 = 0.5029 | 756.32 ± 1 | 751.06 ± 1 | 745.74 ± 1 | 1157 ± 3 | 1134 ± 3 | 1111 ± 3 | 0.378 ± 0.009 | 0.359 ± 0.009 | 0.341 ± 0.009
x1 = 0.6052 | 752.71 ± 1.2 | 747.55 ± 1.2 | 742.34 ± 1.2 | 1161 ± 4 | 1137 ± 4 | 1114 ± 4 | 0.396 ± 0.01 | 0.375 ± 0.01 | 0.355 ± 0.009
x1 = 0.7112 | 749.82 ± 1.4 | 744.77 ± 1.4 | 739.67 ± 1.4 | 1166 ± 4 | 1143 ± 4 | 1120 ± 4 | 0.418 ± 0.012 | 0.395 ± 0.011 | 0.374 ± 0.01
x1 = 0.8139 | 747.82 ± 1.6 | 742.89 ± 1.6 | 737.92 ± 1.6 | 1174 ± 5 | 1151 ± 5 | 1127 ± 5 | 0.438 ± 0.013 | 0.415 ± 0.012 | 0.393 ± 0.012
x1 = 0.9084 | 746.75 ± 1.8 | 741.94 ± 1.8 | 737.09 ± 1.8 | 1184 ± 5 | 1161 ± 5 | 1137 ± 5 | 0.467 ± 0.015 | 0.442 ± 0.014 | 0.418 ± 0.013
x1 = 0.954 | 746.58 ± 1.9 | 741.83 ± 1.9 | 737.04 ± 1.9 | 1190 ± 5 | 1167 ± 5 | 1143 ± 5 | 0.482 ± 0.015 | 0.457 ± 0.015 | 0.432 ± 0.014
x1 = 1 | 746.64 ± 2 | 741.94 ± 2 | 737.21 ± 1.9 | 1197 ± 5 | 1174 ± 5 | 1150 ± 5 | 0.504 ± 0.016 | 0.476 ± 0.016 | 0.45 ± 0.015

CC1CCCC1 [methylcyclopentane] + CCCC(C)=O
Conditions | mass density, 293.15 K [kg/m3] | mass density, 298.15 K [kg/m3] | mass density, 303.15 K [kg/m3] | speed of sound, 293.15 K [m/s] | speed of sound, 298.15 K [m/s] | speed of sound, 303.15 K [m/s] | viscosity, 293.15 K [mPa·s] | viscosity, 298.15 K [mPa·s] | viscosity, 303.15 K [mPa·s]
x1 = 0.0493 | 802.59 ± 0.31 | 797.76 ± 0.31 | 792.9 ± 0.31 | 1228 ± 2 | 1207 ± 2 | 1187 ± 2 | 0.49 ± 0.011 | 0.462 ± 0.01 | 0.439 ± 0.009
x1 = 0.0981 | 798.89 ± 0.4 | 794.06 ± 0.4 | 789.19 ± 0.39 | 1224 ± 2 | 1203 ± 2 | 1182 ± 2 | 0.485 ± 0.011 | 0.459 ± 0.01 | 0.434 ± 0.009
x1 = 0.1993 | 791.61 ± 0.57 | 786.76 ± 0.57 | 781.89 ± 0.57 | 1216 ± 3 | 1194 ± 3 | 1173 ± 3 | 0.479 ± 0.011 | 0.452 ± 0.01 | 0.43 ± 0.01
x1 = 0.3038 | 784.4 ± 0.76 | 779.56 ± 0.75 | 774.7 ± 0.75 | 1207 ± 3 | 1185 ± 3 | 1164 ± 3 | 0.473 ± 0.011 | 0.449 ± 0.01 | 0.425 ± 0.01
x1 = 0.3972 | 778.23 ± 0.92 | 773.38 ± 0.91 | 768.51 ± 0.91 | 1201 ± 3 | 1179 ± 3 | 1157 ± 3 | 0.47 ± 0.011 | 0.444 ± 0.011 | 0.421 ± 0.01
x1 = 0.5007 | 771.75 ± 1.1 | 766.91 ± 1.1 | 762.04 ± 1.1 | 1196 ± 4 | 1174 ± 4 | 1152 ± 4 | 0.469 ± 0.012 | 0.444 ± 0.011 | 0.42 ± 0.011
x1 = 0.6069 | 765.58 ± 1.3 | 760.74 ± 1.3 | 755.87 ± 1.3 | 1193 ± 4 | 1171 ± 4 | 1148 ± 4 | 0.468 ± 0.012 | 0.442 ± 0.012 | 0.419 ± 0.011
x1 = 0.6989 | 760.33 ± 1.4 | 755.52 ± 1.4 | 750.68 ± 1.4 | 1191 ± 4 | 1168 ± 4 | 1146 ± 4 | 0.47 ± 0.013 | 0.444 ± 0.012 | 0.422 ± 0.012
x1 = 0.8052 | 754.83 ± 1.6 | 750.05 ± 1.6 | 745.24 ± 1.6 | 1190 ± 5 | 1168 ± 5 | 1145 ± 5 | 0.477 ± 0.014 | 0.451 ± 0.013 | 0.427 ± 0.013
x1 = 0.9039 | 750.38 ± 1.8 | 745.64 ± 1.8 | 740.86 ± 1.8 | 1193 ± 5 | 1170 ± 5 | 1147 ± 5 | 0.487 ± 0.015 | 0.458 ± 0.014 | 0.433 ± 0.013
x1 = 0.9508 | 748.6 ± 1.9 | 743.88 ± 1.9 | 739.12 ± 1.9 | 1195 ± 5 | 1172 ± 5 | 1148 ± 5 | 0.493 ± 0.016 | 0.466 ± 0.015 | 0.44 ± 0.014
x1 = 1 | 746.64 ± 2 | 741.94 ± 2 | 737.21 ± 1.9 | 1197 ± 5 | 1174 ± 5 | 1150 ± 5 | 0.504 ± 0.016 | 0.476 ± 0.016 | 0.45 ± 0.015

CC1CCCC1 [methylcyclopentane] + CCC(C)=O
Conditions | mass density, 293.15 K [kg/m3] | mass density, 298.15 K [kg/m3] | mass density, 303.15 K [kg/m3] | speed of sound, 293.15 K [m/s] | speed of sound, 298.15 K [m/s] | speed of sound, 303.15 K [m/s] | viscosity, 293.15 K [mPa·s] | viscosity, 298.15 K [mPa·s] | viscosity, 303.15 K [mPa·s]
x1 = 0.048 | 800.42 ± 0.31 | 795.21 ± 0.31 | 789.96 ± 0.31 | 1208 ± 2 | 1187 ± 2 | 1165 ± 2 | 0.397 ± 0.009 | 0.378 ± 0.008 | 0.36 ± 0.008
x1 = 0.0982 | 795.99 ± 0.4 | 790.8 ± 0.4 | 785.57 ± 0.39 | 1203 ± 2 | 1181 ± 2 | 1160 ± 2 | 0.396 ± 0.009 | 0.376 ± 0.008 | 0.358 ± 0.008
x1 = 0.1942 | 787.99 ± 0.56 | 782.84 ± 0.56 | 777.64 ± 0.56 | 1195 ± 3 | 1173 ± 3 | 1151 ± 3 | 0.397 ± 0.009 | 0.377 ± 0.008 | 0.358 ± 0.008
x1 = 0.2911 | 780.72 ± 0.73 | 775.6 ± 0.73 | 770.44 ± 0.72 | 1188 ± 3 | 1166 ± 3 | 1144 ± 3 | 0.402 ± 0.009 | 0.383 ± 0.009 | 0.364 ± 0.008
x1 = 0.398 | 773.4 ± 0.92 | 768.32 ± 0.91 | 763.2 ± 0.9 | 1183 ± 3 | 1161 ± 3 | 1139 ± 3 | 0.408 ± 0.01 | 0.386 ± 0.009 | 0.367 ± 0.009
x1 = 0.5036 | 766.98 ± 1.1 | 761.95 ± 1.1 | 756.87 ± 1.1 | 1181 ± 4 | 1158 ± 4 | 1136 ± 4 | 0.416 ± 0.011 | 0.394 ± 0.01 | 0.374 ± 0.009
x1 = 0.6033 | 761.6 ± 1.3 | 756.62 ± 1.3 | 751.6 ± 1.3 | 1180 ± 4 | 1157 ± 4 | 1135 ± 4 | 0.427 ± 0.011 | 0.404 ± 0.011 | 0.383 ± 0.01
x1 = 0.6993 | 757.02 ± 1.4 | 752.08 ± 1.4 | 747.11 ± 1.4 | 1181 ± 4 | 1158 ± 4 | 1135 ± 4 | 0.439 ± 0.012 | 0.415 ± 0.012 | 0.394 ± 0.011
x1 = 0.8045 | 752.53 ± 1.6 | 747.68 ± 1.6 | 742.78 ± 1.6 | 1184 ± 5 | 1161 ± 5 | 1138 ± 5 | 0.455 ± 0.013 | 0.431 ± 0.013 | 0.409 ± 0.012
x1 = 0.906 | 749.02 ± 1.8 | 744.24 ± 1.8 | 739.42 ± 1.8 | 1189 ± 5 | 1166 ± 5 | 1143 ± 5 | 0.475 ± 0.015 | 0.448 ± 0.014 | 0.425 ± 0.013
x1 = 0.9517 | 747.8 ± 1.9 | 743.03 ± 1.9 | 738.24 ± 1.9 | 1193 ± 5 | 1169 ± 5 | 1146 ± 5 | 0.487 ± 0.016 | 0.46 ± 0.015 | 0.436 ± 0.014
x1 = 1 | 746.64 ± 2 | 741.94 ± 2 | 737.21 ± 1.9 | 1197 ± 5 | 1174 ± 5 | 1150 ± 5 | 0.504 ± 0.016 | 0.476 ± 0.016 | 0.45 ± 0.015
